Assay results from patent US20040242550A1, “Means and method for hormonal contraception” (priority 2001, published 2004).

Experiment: conversion factors for progestogens: amount equivalent to a given amount of levonorgestrel
Details: for equivalent to 30 μg levonorgestrel / equivalent to 750 μg levonorgestrel: estimated amount of progestogen; for Conversion factor: relative to levonorgestrel, for guidance, estimate
Text: In order to determine for a specific biogenic estrogen or synthetic estrogen the amounts that are equivalent to a cited amount of ethinyl estradiol or 17beta-estradiol, the method described by Allen and Doisy may suitably be used (Allen A., Doisy E. A., “An ovarian hormone. Preliminary report on its localization, extraction and partial purification, and action in test animals. JAMA (1923), 81, 819-821). Similarly, in order to determine for a given progestogen the amount equivalent to cited amount of levonorgestrel the method originally described by McPhail can be used (Mc Phail M. K. “The assay of progestin” J Physiol (1934), 83, 145-156). A more recent description of this method can be found in an article written by Overbeek G. A., de Visser J. “A new substance with progestational activity”, Acta Endocrinol (1956), 22, 318-329. It is noted that the aforementioned methods will provide useful indications about the anticipated estrogen potency or progestogen potency of a particular hormone. However, to accurately determine the equivalent amounts that are referred to above, it is advisable to additionally conduct in vivo studies in human females.
For guidance the table below provides the conversion factors for a number of progestogens that may suitably be used in the method of the invention. These conversion factors may be used to calculate, for each progestogen mentioned in the table, an estimate of the amount of said progestogen which is equivalent to a given amount of levonorgestrel.

SMILES	equivalent to 30 μg levonorgestrel	equivalent to 750 μg levonorgestrel	Conversion factor
C#C[C@]1(OC(C)=O)CC[C@H]2[C@@H]3CCC4=CC(=NO)CC[C@@H]4[C@H]3CC[C@@]21CC (mixture of isomers) [norgestimate]	51 µg	1.275 mg	1.7
C[C@]12CCC(=O)C=C1[C@@H]1C[C@@H]1[C@H]1[C@@H]3[C@@H]4C[C@@H]4[C@@]4(CCC(=O)O4)[C@@]3(C)CC[C@@H]12 [drospirenone]	600 µg	15 mg	20
CC(=O)[C@H]1CC[C@H]2[C@@H]3C=CC4=CC(=O)CC[C@@]4(C)[C@@H]3CC[C@]12C [dydrogesterone]	4000 µg	100 mg	133
C#C[C@]1(O)CC[C@H]2[C@@H]3CCC4=CC(=O)CC[C@@H]4[C@H]3CC[C@@]21C [norethisterone]	210 µg	5.25 mg	7
